Columns and labels:
[1] = not told
Text: The porosity and permeability of the latter have been estimated via Boyle's pycnometer and scanning electron microscopy (SEM) analysis.

[2] = test system: chondrocytes in the cartilage chamber; experiment: RT-PCR marker expression, chondrocyte response in cartilage (top) chamber of the bioreactor; type: cell-based; conditions: weeks 3 and 4 (1 nM estradiol + 10 nM progesterone; 0.1 nM estradiol + 50 nM progesterone)
Protocol: FIGS. 17-20 are graphs that show differential expression of markers (as determined by RT-PCR) for a control medium that contained no estrogen or progesterone (first bar), and then different concentrations of hormones supplied to one or the other of the bioreactor chambers during week 1 (w1: 0.1 nM estradiol), week 2 (w2: 1 nM estradiol), week 3 (w3: 1 nM estradiol and 10 nM progesterone), and week 4 (w4: 0.1 nM estradiol and 50 nM progesterone). […] FIGS. 17-18 show differential expression of markers (as determined by RT-PCR) for a control medium that contained no estrogen or progesterone (first bar), and then different concentrations of hormones supplied to the chambers during week 1 (w1: 0.1 nM estradiol), week 2 (w2: 1 nM estradiol), week 3 (w3: 1 nM estradiol and 10 nM progesterone), and week 4 (w4: 0.1 nM estradiol and 50 nM progesterone).

Compound	Permeability [1]	expression of cartilage anabolic markers, progesterone progressively added [2]
poly-L-lactate [PLLA scaffold]	3.234e−09 m^2	
CC(=O)[C@H]1CC[C@H]2[C@@H]3CCC4=CC(=O)CC[C@]4(C)[C@H]3CC[C@]12C [progesterone]		downregulation is still present

Source: patent publication US11154858B2, “Microfluidic tissue development systems” (University of Pittsburgh—Of the Commonwealth System of …, priority 2015, dated 2021)
